Reference: ChEMBL document CHEMBL1125302, “Prodrugs of nitroxyl as inhibitors of aldehyde dehydrogenase” (J Med Chem, 1992)
Calls of active or inactive are those of the source. The calls are words filed in the database; no cut-off is given here.

Assays:
[1] = Inhibitory activity against porcine […] dehydrogenase; Active; conditions: Sus scrofa
[2] = In vitro inhibitory activity against yeast […] dehydrogenase; Active; conditions: Saccharomyces cerevisiae

N#CN(OC(=O)c1ccccc1)C(=O)c1ccccc1
Activity [1]: Active

CC(=O)ON(C(=O)OC(C)(C)C)S(=O)(=O)c1ccccc1
Activity [1]: Active | Activity [2]: Active

CC(C)(C)OC(=O)N(OC(=O)c1ccccc1)S(=O)(=O)c1ccccc1
Activity [1]: Active | Activity [2]: Active
